Results taken from US4605615A, “L-glutamic acid oxidase (H2 O2 -generating), its production and analytical method therefor” (priority 1982, dated 1986).
Where two headings read alike, the source gives them in different places.

Legend:
A8063 enzyme [1] = experiment: Effect of surface active agents and other substances on enzyme activity; type: biochemical, Streptomyces sp. A8063
Procedure: (§1) The above mixture (3.0 ml) was introduced into a quartz cell at 37° C., to which was immediately added and mixed the enzyme solution (50 μl), in a constant temperature (37° C.) cell-holder of a spectrophotometer. Then the mixture was incubated for exactly 5 minutes after 2 minutes of mixing with the enzyme solution, and the variation of absorption (optical density ΔA545) at 545 nm is measured.
(§2) The activity of the enzyme is calculated by the following equation: [formula] 2.

A7700 enzyme [2] = experiment: as above; type: biochemical, Streptomyces sp. A7700
Procedure: as §1, §2

A7700 enzyme [3] = experiment: Substrate specificity: relative activity on various substrates; type: biochemical, Streptomyces sp. A7700
Procedure: as §1
(§3) The activity of the enzyme is calculated by the following equation: [formula] 2. Substrate specificity:
(§4) The relative activities (%) of enzyme L-glutamic acid oxidases produced by Streptomyces sp. A7700 (hereinafter designated as A7700 enzyme) and by Streptomyces sp. A8063 (hereinafter designated as A8063 enzyme), respectively, on various substrates as compared with L-glutamic acid, are measured.

A8063 enzyme [4] = experiment: as above; type: biochemical, Streptomyces sp. A8063
Procedure: as §1, §3, §4

A8063 enzyme [5] = experiment: Effect of metal ions on enzyme activity; type: biochemical, Streptomyces sp. A8063; details: metalic salt 1.0 mM
Procedure: as §1, §3
(§5) The effect of metal ions is shown in Table 5, in which ions other than Cu^++ show no effect on the enzymes.

A7700 enzyme [6] = experiment: Effect of metal ions on enzyme activity; type: biochemical, Streptomyces sp. A7700; details: metalic salt 1.0 mM
Procedure: as §1, §3, §5

A8063 enzyme [7] = details: read-out: Km value; A8063 enzyme against L-glutamic acid
A7700 enzyme [8] = details: read-out: Km value; A7700 enzyme against L-glutamic acid

In the case of `Cc1cc2nc3c(=O)[nH]c(=O)nc-3n(C[C@H](O)[C@H](O)[C@H](O)COP(=O)(O)OP(=O)(O)OC[C@H]3O[C@@H](n4cnc5c(N)ncnc54)[C@H](O)[C@@H]3O)c2cc1C` [FAD], the “Relative activity (%)” value (A8063 enzyme [1]; A8063, additive 0.01 mM) is reported as 100.7%, the “Effect of additive on enzyme activity (in words)” value (from here on “Effect of additive”) (A8063 enzyme [1]; A8063 enzyme) is reported as “not affected” and the “Relative activity (%)” value (A7700 enzyme [2]; A7700, additive 0.01 mM) is reported as 100.7%. The “Effect of additive” value (A7700 enzyme [2]; A7700 enzyme) was “not affected”.
`CCN` [ethylamine] was tested, and the “Relative activity (%) on substrate as compared with L-glutamic acid” value (“Relative activity (%) on substrate” below) (A7700 enzyme [3]) was 0% and the “Relative activity (%) on substrate” value (A8063 enzyme [4]) was 0%.
For `[Cl-].[Cl-].[Mg+2]` [MgCl2], the “Relative activity (%)” value (A8063 enzyme [5]) was 103.4% and the “Relative activity (%)” value (A7700 enzyme [6]) was 102.5%.
For `[Cl][Cu][Cl]` [CuCl2], the “Relative activity (%)” value (A8063 enzyme [5]) was 62.1% and the “Relative activity (%)” value (A7700 enzyme [6]) was 50.3%.
In the case of `CCCCN` [butylamine], the “Relative activity (%) on substrate” value (A7700 enzyme [3]) is reported as 0% and the “Relative activity (%) on substrate” value (A8063 enzyme [4]) is reported as 0%.
`CSCC[C@H](N)C(=O)O` [L-methionine] was tested, and the “Relative activity (%) on substrate” value (A7700 enzyme [3]) was 0% and the “Relative activity (%) on substrate” value (A8063 enzyme [4]) was 0%.
In the case of `CN` [methylamine], the “Relative activity (%) on substrate” value (A7700 enzyme [3]) is reported as 0% and the “Relative activity (%) on substrate” value (A8063 enzyme [4]) is reported as 0%.
`CCCCCCCCCCCCCCCC[N+](C)(C)C` [CTACl] was tested, and the “Relative activity (%)” value (A8063 enzyme [1]; A8063, additive 0.1%) was 94.2% and the “Relative activity (%)” value (A7700 enzyme [2]; A7700, additive 0.1%) was 98.6%.
With `N[C@@H](Cc1ccccc1)C(=O)O` [L-phenylalanine] the “Relative activity (%) on substrate” value (A7700 enzyme [3]) was 0% and the “Relative activity (%) on substrate” value (A8063 enzyme [4]) was 0%.
For `[Cl][Fe]([Cl])[Cl]` [FeCl3], the “Relative activity (%)” value (A8063 enzyme [5]) was 103.0% and the “Relative activity (%)” value (A7700 enzyme [6]) was 109.2%.
`C[C@@H](O)[C@H](N)C(=O)O` [L-threonine] was tested, and the “Relative activity (%) on substrate” value (A7700 enzyme [3]) was 0% and the “Relative activity (%) on substrate” value (A8063 enzyme [4]) was 0%.
For `NO` [hydroxylamine], the “Relative activity (%) on substrate” value (A7700 enzyme [3]) was 0% and the “Relative activity (%) on substrate” value (A8063 enzyme [4]) was 0%.
In the case of `C[C@H](N)C(=O)O` [L-alanine], the “Relative activity (%) on substrate” value (A7700 enzyme [3]) is reported as 0% and the “Relative activity (%) on substrate” value (A8063 enzyme [4]) is reported as 0%.
For `N[C@@H](CCC(=O)O)C(=O)O` [L-glutamic acid], the Km (A8063 enzyme [7]) was roughly 1100 µM, the Km (A7700 enzyme [8]) was roughly 560 µM and the “Activity of enzyme on substrate (in words)” value (A7700 enzyme [3]) was “specific activity”. The “Relative activity (%) on substrate” value (A7700 enzyme [3]) was 100%, the “Activity of enzyme on substrate (in words)” value (A8063 enzyme [4]) was “specific activity” and the “Relative activity (%) on substrate” value (A8063 enzyme [4]) was 100%.
With `CCCN` [propylamine] the “Relative activity (%) on substrate” value (A7700 enzyme [3]) was 0% and the “Relative activity (%) on substrate” value (A8063 enzyme [4]) was 0%.
In the case of `[Cl][Mn][Cl]` [MnCl2], the “Relative activity (%)” value (A8063 enzyme [5]) is reported as 105.7% and the “Relative activity (%)” value (A7700 enzyme [6]) is reported as 108.6%.
In the case of `[Cl][Ni][Cl]` [NiCl2], the “Relative activity (%)” value (A8063 enzyme [5]) is reported as 102.3% and the “Relative activity (%)” value (A7700 enzyme [6]) is reported as 101.8%.
With `N[C@@H](Cc1ccc(O)cc1)C(=O)O` [L-tyrosine] the “Relative activity (%) on substrate” value (A7700 enzyme [3]) was 0% and the “Relative activity (%) on substrate” value (A8063 enzyme [4]) was 0%.
With `N[C@@H](Cc1c[nH]cn1)C(=O)O` [L-histidine] the “Relative activity (%) on substrate” value (A7700 enzyme [3]) was 0% and the “Relative activity (%) on substrate” value (A8063 enzyme [4]) was 0%.
For `NCc1ccccc1` [benzylamine], the “Relative activity (%) on substrate” value (A7700 enzyme [3]) was 0% and the “Relative activity (%) on substrate” value (A8063 enzyme [4]) was 0%.
For `CCCCCCCCCCCCOS(=O)(=O)O` [SDS], the “Relative activity (%)” value (A8063 enzyme [1]; A8063, additive 0.1%) was 93.1% and the “Relative activity (%)” value (A7700 enzyme [2]; A7700, additive 0.1%) was 106.3%.
For `O=C(O)CN(CCN(CC(=O)O)CC(=O)O)CC(=O)O` [EDTA], the “Effect of additive” value (A8063 enzyme [1]) was “lack of effect”, the “Relative activity (%)” value (A8063 enzyme [1]) was 100.7% and the “Effect of additive” value (A7700 enzyme [2]) was “lack of effect”. The “Relative activity (%)” value (A7700 enzyme [2]) was 93.8%.
`N[C@H](CCC(=O)O)C(=O)O` [D-glutamic acid] was tested, and the “Relative activity (%) on substrate” value (A7700 enzyme [3]) was 0% and the “Relative activity (%) on substrate” value (A8063 enzyme [4]) was 0%.
With `N[C@@H](CO)C(=O)O` [L-serine] the “Relative activity (%) on substrate” value (A7700 enzyme [3]) was 0% and the “Relative activity (%) on substrate” value (A8063 enzyme [4]) was 0%.
`NCCCC[C@H](N)C(=O)O` [L-lysine] was tested, and the “Relative activity (%) on substrate” value (A7700 enzyme [3]) was 0% and the “Relative activity (%) on substrate” value (A8063 enzyme [4]) was 0%.
For `[Cl-].[Cl-].[Zn+2]` [ZnCl2], the “Relative activity (%)” value (A8063 enzyme [5]) was 110.7% and the “Relative activity (%)” value (A7700 enzyme [6]) was 106.1%.
For `[Ca+2].[Cl-].[Cl-]` [CaCl2], the “Relative activity (%)” value (A8063 enzyme [5]) was 103.0% and the “Relative activity (%)” value (A7700 enzyme [6]) was 98.8%.
For `[Cl-].[Cl-].[Co+2]` [CoCl2], the “Relative activity (%)” value (A8063 enzyme [5]) was 98.0% and the “Relative activity (%)” value (A7700 enzyme [6]) was 99.4%.
With `[Ba+2].[Cl-].[Cl-]` [BaCl2] the “Relative activity (%)” value (A8063 enzyme [5]) was 103.7% and the “Relative activity (%)” value (A7700 enzyme [6]) was 102.5%.
In the case of `N=C(N)NCCC[C@H](N)C(=O)O` [L-arginine], the “Relative activity (%) on substrate” value (A7700 enzyme [3]) is reported as 0% and the “Relative activity (%) on substrate” value (A8063 enzyme [4]) is reported as 0%.
In the case of `O=C(O)c1cc[c]([Hg][Cl])cc1` [PCMB], the “Relative activity (%)” value (A8063 enzyme [1]; A8063, additive 0.002%) is reported as 98.2% and the “Relative activity (%)” value (A7700 enzyme [2]; A7700, additive 0.002%) is reported as 107.6%.
With `[N-]=[N+]=[N-].[Na+]` [NaN3] the “Relative activity (%)” value (A8063 enzyme [1]; A8063, additive 10 mM) was 102.6%, the “Effect of additive” value (A8063 enzyme [1]; A8063 enzyme) was “not inhibited” and the “Relative activity (%)” value (A7700 enzyme [2]; A7700, additive 10 mM) was 101.4%. The “Effect of additive” value (A7700 enzyme [2]; A7700 enzyme) was “not inhibited”.
For `CC(C)[C@H](N)C(=O)O` [L-valine], the “Relative activity (%) on substrate” value (A7700 enzyme [3]) was 0% and the “Relative activity (%) on substrate” value (A8063 enzyme [4]) was 0%.
In the case of `CC[C@H](C)[C@H](N)C(=O)O` [L-isoleucine], the “Relative activity (%) on substrate” value (A7700 enzyme [3]) is reported as 0% and the “Relative activity (%) on substrate” value (A8063 enzyme [4]) is reported as 0%.
In the case of `Cc1cc2nc3c(=O)[nH]c(=O)nc-3n(C[C@H](O)[C@H](O)[C@H](O)COP(=O)(O)O)c2cc1C` [FMN], the “Relative activity (%)” value (A8063 enzyme [1]; A8063, additive 0.01 mM) is reported as 97.1%, the “Effect of additive” value (A8063 enzyme [1]; A8063 enzyme) is reported as “not affected” and the “Relative activity (%)” value (A7700 enzyme [2]; A7700, additive 0.01 mM) is reported as 88.9%. The “Effect of additive” value (A7700 enzyme [2]; A7700 enzyme) was “not affected”.
In the case of `C[C@H](CCC(=O)O)[C@H]1CC[C@H]2[C@@H]3[C@H](O)C[C@@H]4C[C@H](O)CC[C@]4(C)[C@H]3C[C@H](O)[C@]12C` [sodium cholate], the “Relative activity (%)” value (A8063 enzyme [1]; A8063, additive 0.1%) is reported as 100.0% and the “Relative activity (%)” value (A7700 enzyme [2]; A7700, additive 0.1%) is reported as 104.2%.
For `NCCc1ccc(O)cc1` [tyramine], the “Relative activity (%) on substrate” value (A7700 enzyme [3]) was 0% and the “Relative activity (%) on substrate” value (A8063 enzyme [4]) was 0%.
